Results as given in patent US7438931B2, “Methods and compositions for the treatment of angiogenic diseases” (The Regents of The University of Michigan, priority 1998, dated 2008).

Legend:
[1] = system: SUM149 breast cancer cells; assay: Nude mice with orthotopically injected SUM149 cells; format: in vivo
Excerpt: In this study, the ability of tetrathiomolybdate (TM) to abrogate or retard the growth of tumors in the mammary pads of nude mice after orthotropic injection of human breast cancer cells was studied. The highly angiogenic inflammatory breast cancer cell line called SUM149 was selected for this study. Given its high propensity to form palpable tumors within 2 weeks of injection into the mammary of 80-100% of the nude mice injected, this cell line posed a stringent test of the ability of TM to impair tumor progression.
Three groups of 5 nude mice each were set up in separate cages. Groups 2 and 3 received TM in the drinking water to average an intake of 1.2 mg/day/mouse, starting at day −7. Groups 1, 2, and 3 were injected on day 0 with 10^6 SUM149 breast cancer cells in the second thoracic mammary fat pad. On day 34, as no palpable tumors were noticeable in any of the mice in the treatment groups, TM was skipped on groups 2 and 3, and then TM was restarted on group 2 at a dose of 0.6 mg/day/mouse, while TM was resumed at full dose (1.2 mg/mouse/day) in group 3.
The developing tumors were measured approximately twice weekly, and the average of the product of the bi-dimensional perpendicular diameters for each group versus time is plotted in FIG. 3. The tumors in the control group grew relatively rapidly and all animals developed tumors. […] This dose decreases copper to approximately 10-20% of baseline levels. It is this degree of copper deficiency, well tolerated in both mice and humans, which appears to be required to inhibit tumor angiogenesis.

[2] = system: mouse sarcoma, MCA205, and a mouse melanoma, B16B16; assay: Mouse tumor model, injected tumor cells in C57B1/6J mice; format: in vivo
Protocol: Under these guidelines, anti-angiogenesis therapeutic studies were conducted using TM in a mouse tumor model. This study involved subcutaneous or intramuscular injection of tumor cells into young adult C57B1/6J mice. Two tumors were used, a mouse sarcoma, MCA205, and a mouse melanoma, B16B16. The MCA 205 tumor cell suspension was injected subcutaneously into C57B16 mice. After the tumors were palpable, copper deficiency was induced by use of TM in half the animals, using Cp levels to monitor copper status. The other half were sham treated. Tumor growth was compared between the untreated control group and mice treated with sufficient TM to reduce Cp to about 10% of normal controls.

[3] = system: copper toxicity; settings: cited from earlier work
[4] = Stability of sucrose-TM complex vs pure TM in open air (OD467); format: physicochemical; settings: after 3 months of storage in an open dish
Protocol: An example of such a stabilized thiomolybdate compound is tetrathiomolybdate stabilized by sucrose. To prepare the sucrose-ammonium tetrathiomolybdate complex, 25 grams of sucrose is dissolved in 20 ml of distilled water. 1 gram of ammonium tetrathiomolybdate (TM) is added and the mixture stirred under argon until the TM is solution. The water is then removed from the mixture by flash evaporation under high vacuum.
After 3 months of storage in an open dish, the sucrose powder retained 61% of the original drug as measured by the OD467, while the TM stored under the same conditions retained only 5% of its original OD467.

[5] = system: MML cells (prostate cancer) and breast cancer cells; assay: Cytotoxicity assay of MML cells and breast cancer cells; format: cell-based
Excerpt: Normal and neoplastic cells in culture derive their nutrients from transport and utilization of molecules from the media to the interior of the cell. This process is not dependent on blood vessel growth, and therefore TM should have no effect on cell growth rates and cell viability over a wide range of concentration, until a level of TM which is toxic to most cells is reached. One mechanism of toxicity is the depletion of free copper levels below those required for basic cell function. For concentrations of TM beyond this toxic level, both normal and neoplastic cells will be unable to survive, due to cellular toxicity of TM.
This was confirmed in a cytotoxicity assay of MML cells (prostate cancer) and breast cancer cells. […] The fraction of viable cells decreased precipitously from 100% to 15% when the concentration of TM increased from 1 μg/ml to 10 μg/ml. TM is therefore not contemplated for use a direct cytotoxic agent, as it is clear that, at the very high doses required for a cytotoxic effect, both tumor and normal cell death would occur. The serum TM concentrations needed to achieve an effective decoppering level are 100-500-fold lower than the threshold lethal level for cells.

[6] = approximately 6 mg of TM per kilogram of diet; cited from earlier work

tetrathiomolybdate [TM]
palpable tumors ([1]; 1.2 mg/day/mouse in drinking water from day −7): no tumors were palpable until TM was skipped on day 34
tumor growth after TM skipped on day 34 ([1]; TM restarted at ½ dose (0.6 mg/day/mouse)): the tumors grew more rapidly
tumor growth after TM skipped on day 34 ([1]; TM resumed at full dose 1.2 mg/day/mouse): only very small tumors have grown
copper level ([1]; full dose 1.2 mg/day/mouse): 10-20 % of baseline levels
decrease of copper levels ([1]; ½ dose of TM (0.6 mg/day/mouse)): 50%
tumor growth ([2]; TM sufficient to reduce Cp to about 10% of normal, 16 days of observation): Tumor growth was slowed by the treatment, although not halted
tumor weight normalized to total weight of the animal ([2]; TM-treated vs control mice): weighed significantly less than the tumors in control mice
tolerability of IV TM injections ([3]; copper loaded sheep, 50 or 100 mg 2× weekly for up to 11 weeks): tolerated up to 22 injections of TM without clinical problems
adverse side effects ([3]; over 400 animals of commercial sheep flocks, prophylactic use): no adverse side effects
retained % of the original drug as measured by the OD467 [4]: 5%
serum TM concentrations for effective decoppering relative to threshold lethal level for cells [5]: 100-500 fold lower
effects on copper [6]: reduction of plasma ceruloplasmin and a reduction in liver and kidney copper
